According to patent US20210261642A1, “SOLUBILITY OF GLP-1 PEPTIDE” (Novo Nordisk A/S, priority 2017, published 2021):
In brackets after ≈: the same amount, converted by molar mass. Where two headings read alike, the source gives them in different places.

Assay: Assay (I): Determination of Solubility (96-well plate, pH 3.0-11.0, organic solvent 0-70% w/w, UV absorption at 280 nm)
Assay type: physicochemical
Settings: for GLP-1 peptide concentration: Method 2 (precipitation), 5° C.; for solubility thermodynamic at 24 h: read-out: Peptide concentration after 24 h
Description: Assay (I): Determination of Solubility
96-Well Plate Preparation
96-well plates containing target peptide in a solid form were prepared in one of two ways:
Method 1 (evaporation): Addition of 100 μl stock solution of said peptide at a concentration of 4-6 mg/ml to each well of a 96-well half area plate (150 μl well size). Subsequently the solvent was evaporated by applying a vacuum until the solvent was completely removed.
Method 2 (precipitation): Addition of a certain volume of a stock solution of said peptide containing to each well of a 96-well half area plate followed by the addition of a certain volume of concentrated phosphoric acid to obtain a pH of 4.6 followed by addition of a certain volume of ethanol resulting in a final ethanol concentration of 20% v/v. Subsequently the plate was stored at 4° C. for 1 h and then centrifuged at 4,000 rpm for 20 min. Finally the supernatant was removed. The concentration of the stock solution was chosen in a way that the final amount of peptide after supernatant removal was >0.4 mg per well.
In both cases the stock solution was prepared by adding de-ionized water to a certain amount of powder of said peptide followed by a stepwise addition of small amounts of a concentrated sodium hydroxide solution until said peptide was completely in solution.
To determine solubility of a target peptide at different pH and organic solvent concentrations, two different buffer systems were used in independent experiments to cover the whole range from pH 3.0 to pH 11.0. Buffer system 1 covers pH 3.0-7.5 and buffer system 2 covers pH 7.5-11.0. For each buffer system 96 different solvent compositions were premixed in the following way: • 1. A low pH buffer (adjusted to either pH 3.0 or pH 7.5) and a high pH buffer (adjusted to either pH 7.5 or pH 11.0) were mixed at 8 different ratios to obtain values between pH 3.0 and pH 7.5 or pH 7.5 and pH 11.0, respectively. The total volume after mixing was 300 μl. • 2. 12 different amounts of organic solvent were then added to these buffers to obtain organic solvent (e.g. ethanol) concentrations between 0 and 70% w/w. • 3. Water was then added to obtain a total weight of 1.0 g of solvent in each well.
After preparing the 96 different solvent systems, 100 μl of each system was transferred to the 96-well plate containing the solid form of the target peptide (prepared as described in the section “96-well plate preparation”). The plate was then stored at a given temperature (between 5° C. and 70° C.) for a given time on a rotating shaker set to 400 rpm. At regular time intervals the plate was centrifuged (4,000 rpm for 10 min) and a 10 μl sample was taken from each well. The samples were then analysed by UV absorption at 280 nm for peptide quantification. Peptide concentration results are given as UV absorption at 280 nm of the sample subtracted UV absorption at 280 nm of a well comprising 10 μl water.
The buffers used were as follows: • Buffer system 1 (for the pH range from pH 3.0-7.5)
• Buffer system 2 (for the pH ranae from pH 7.5-11.0)
Solubility of liraglutide was determined using Assay (I) described herein. Liraglutide was prepared using Method 1 (evaporation) or Method 2 (precipitation) as described in subsection “96-well plate preparation”.

- GLP-1 peptide concentration (MeCN 63.6% w/w, pH 10.00, 5 min, before removal of outliers): 0.4 mg/mL
- GLP-1 peptide concentration (MeCN 63.6% w/w, pH 10.00, 180 min, after removal of outliers): 2.9 mg/mL
- GLP-1 peptide concentration (MeCN 63.6% w/w, pH 10.00, 180 min, before removal of outliers): 2.9 mg/mL
- GLP-1 peptide concentration (MeCN 63.6% w/w, pH 10.00, 24 h, after removal of outliers): 1.0 mg/mL
- GLP-1 peptide concentration (MeCN 63.6% w/w, pH 10.00, 24 h, before removal of outliers): 1.0 mg/mL
- GLP-1 peptide concentration (MeCN 63.6% w/w, pH 10.50, 5 min, after removal of outliers): 0.6 mg/mL
- GLP-1 peptide concentration (MeCN 63.6% w/w, pH 10.50, 5 min, before removal of outliers): 0.6 mg/mL
- GLP-1 peptide concentration (MeCN 63.6% w/w, pH 10.50, 180 min, after removal of outliers): 3.4 mg/mL
- GLP-1 peptide concentration (MeCN 63.6% w/w, pH 10.50, 180 min, before removal of outliers): 3.4 mg/mL
- GLP-1 peptide concentration (MeCN 63.6% w/w, pH 10.50, 24 h, after removal of outliers): 1.3 mg/mL
- GLP-1 peptide concentration (MeCN 63.6% w/w, pH 10.50, 24 h, before removal of outliers): 1.3 mg/mL
- GLP-1 peptide concentration (MeCN 63.6% w/w, pH 11.00, 5 min, after removal of outliers): 0.5 mg/mL
- GLP-1 peptide concentration (MeCN 63.6% w/w, pH 11.00, 5 min, before removal of outliers): 0.5 mg/mL
- GLP-1 peptide concentration (MeCN 63.6% w/w, pH 11.00, 180 min, after removal of outliers): 3.2 mg/mL
- GLP-1 peptide concentration (MeCN 63.6% w/w, pH 11.00, 180 min, before removal of outliers): 3.2 mg/mL
- GLP-1 peptide concentration (MeCN 63.6% w/w, pH 11.00, 24 h, after removal of outliers): 1.0 mg/mL
- GLP-1 peptide concentration (MeCN 63.6% w/w, pH 11.00, 24 h, before removal of outliers): 1.0 mg/mL
- GLP-1 peptide concentration (MeCN 70.0% w/w, pH 7.50, 5 min, before removal of outliers): 0.3 mg/mL
- GLP-1 peptide concentration (MeCN 70.0% w/w, pH 7.50, 180 min, before removal of outliers): 0.7 mg/mL
- GLP-1 peptide concentration (MeCN 70.0% w/w, pH 7.50, 24 h, before removal of outliers): 1.6 mg/mL
- GLP-1 peptide concentration (MeCN 70.0% w/w, pH 8.00, 5 min, after removal of outliers): 0.4 mg/mL
- GLP-1 peptide concentration (MeCN 70.0% w/w, pH 8.00, 5 min, before removal of outliers): 0.4 mg/mL
- GLP-1 peptide concentration (MeCN 70.0% w/w, pH 8.00, 180 min, after removal of outliers): 1.0 mg/mL
- GLP-1 peptide concentration (MeCN 70.0% w/w, pH 8.00, 180 min, before removal of outliers): 1.0 mg/mL
- GLP-1 peptide concentration (MeCN 70.0% w/w, pH 8.00, 24 h, after removal of outliers): 2.5 mg/mL
- GLP-1 peptide concentration (MeCN 70.0% w/w, pH 8.00, 24 h, before removal of outliers): 2.5 mg/mL
- GLP-1 peptide concentration (MeCN 70.0% w/w, pH 8.50, 5 min, after removal of outliers): 0.4 mg/mL
- GLP-1 peptide concentration (MeCN 70.0% w/w, pH 8.50, 5 min, before removal of outliers): 0.4 mg/mL
- GLP-1 peptide concentration (MeCN 70.0% w/w, pH 8.50, 180 min, after removal of outliers): 1.4 mg/mL
- GLP-1 peptide concentration (MeCN 70.0% w/w, pH 8.50, 180 min, before removal of outliers): 1.4 mg/mL
- GLP-1 peptide concentration (MeCN 70.0% w/w, pH 8.50, 24 h, after removal of outliers): 3.3 mg/mL
- GLP-1 peptide concentration (MeCN 70.0% w/w, pH 8.50, 24 h, before removal of outliers): 3.3 mg/mL
- GLP-1 peptide concentration (MeCN 70.0% w/w, pH 9.00, 5 min, after removal of outliers): 0.4 mg/mL
- GLP-1 peptide concentration (MeCN 70.0% w/w, pH 9.00, 5 min, before removal of outliers): 0.4 mg/mL
- GLP-1 peptide concentration (MeCN 70.0% w/w, pH 9.00, 180 min, after removal of outliers): 1.5 mg/mL
- GLP-1 peptide concentration (MeCN 70.0% w/w, pH 9.00, 180 min, before removal of outliers): 1.5 mg/mL
- GLP-1 peptide concentration (MeCN 70.0% w/w, pH 9.00, 24 h, after removal of outliers): >4.0 mg/mL
- GLP-1 peptide concentration (MeCN 70.0% w/w, pH 9.00, 24 h, before removal of outliers): >4.0 mg/mL
- GLP-1 peptide concentration (MeCN 70.0% w/w, pH 9.50, 5 min, after removal of outliers): 0.5 mg/mL
- GLP-1 peptide concentration (MeCN 70.0% w/w, pH 9.50, 5 min, before removal of outliers): 0.5 mg/mL
- GLP-1 peptide concentration (MeCN 70.0% w/w, pH 9.50, 180 min, before removal of outliers): 1.9 mg/mL
- GLP-1 peptide concentration (MeCN 70.0% w/w, pH 9.50, 24 h, before removal of outliers): >4.0 mg/mL
- solubility thermodynamic at 24 h (aqueous buffer / organic solvent mixture, pH 3.1, aqueous buffer, DMF 0.0% w/w, pH 3.1, RT, Method 1 (evaporation)): 300 µg/mL (≈ 80 µM)
- solubility thermodynamic at 24 h (aqueous buffer / organic solvent mixture, pH 4.8, aqueous buffer, DMF 0.0% w/w, pH 4.8, RT, Method 1 (evaporation)): 200 µg/mL (≈ 53.3 µM)
- solubility thermodynamic at 24 h (aqueous buffer / organic solvent mixture, pH 5.8, aqueous buffer, DMF 0.0% w/w, pH 5.8, RT, Method 1 (evaporation)): 1500 µg/mL (≈ 400 µM)
- solubility thermodynamic at 24 h (aqueous buffer / organic solvent mixture, pH 6.7, aqueous buffer, DMF 0.0% w/w, pH 6.7, RT, Method 1 (evaporation)): 2200 µg/mL (≈ 586 µM)
- solubility thermodynamic at 24 h (pH 3, aqueous buffer, MeCN 0.0% w/w, pH 3.0, RT, Method 1): 100 µg/mL (≈ 26.7 µM)
- solubility thermodynamic at 24 h (pH 3.6, aqueous buffer, MeCN 0.0% w/w, pH 3.6, RT, Method 1): 100 µg/mL (≈ 26.7 µM)
- solubility thermodynamic at 24 h (pH 4.9, aqueous buffer, MeCN 0.0% w/w, pH 4.9, 5° C., Method 1): 100 µg/mL (≈ 26.7 µM)
- solubility thermodynamic at 24 h (pH 6.2, aqueous buffer, MeCN 0.0% w/w, pH 6.2, 5° C., Method 1): 100 µg/mL (≈ 26.7 µM)
- solubility thermodynamic at 24 h (pH 6.2, aqueous buffer, MeCN 0.0% w/w, pH 6.2, RT, Method 1): 500 µg/mL (≈ 133 µM)
- solubility thermodynamic at 24 h (premixed buffer/organic solvent/water solvent system, pH 4.3, aqueous buffer, MeCN 0.0% w/w, pH 4.3, 5° C., Method 1): 200 µg/mL (≈ 53.3 µM)
Compound: CCCCCCCCCCCCCCCC(=O)N[C@@H](CCC(=O)NCCCC[C@H](NC(=O)[C@H](C)NC(=O)[C@H](C)NC(=O)[C@H](CCC(N)=O)NC(=O)CNC(=O)[C@H](CCC(=O)O)NC(=O)[C@H](CC(C)C)NC(=O)[C@H](Cc1ccc(O)cc1)NC(=O)[C@H](CO)NC(=O)[C@H](CO)NC(=O)[C@@H](NC(=O)[C@H](CC(=O)O)NC(=O)[C@H](CO)NC(=O)[C@@H](NC(=O)[C@H](Cc1ccccc1)NC(=O)[C@@H](NC(=O)CNC(=O)[C@H](CCC(=O)O)NC(=O)[C@H](C)NC(=O)[C@@H](N)Cc1cnc[nH]1)[C@@H](C)O)[C@@H](C)O)C(C)C)C(=O)N[C@@H](CCC(=O)O)C(=O)N[C@@H](Cc1ccccc1)C(=O)N[C@H](C(=O)N[C@@H](C)C(=O)N[C@@H](Cc1c[nH]c2ccccc12)C(=O)N[C@@H](CC(C)C)C(=O)N[C@H](C(=O)N[C@@H](CCCNC(=N)N)C(=O)NCC(=O)N[C@@H](CCCNC(=N)N)C(=O)NCC(=O)O)C(C)C)[C@@H](C)CC)C(=O)O [liraglutide, Arg34,Lys26-(N-epsilon-(gamma-L-glutamyl(N-alfa-hexadecanoyl)))-GLP-1(7-37)]
